In PubChem BioAssay (NCI):
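Cells were grown in 96-well plates and exposed to each compound for 48 hours at five concentrations; endpoints were interpolated linearly between bracketing concentrations, or set to the highest concentration if not reached. At the TGI there is no net growth.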 *1 amine or outer side, *2 acyl side, *3 side chain or, on linkers, in order; H or OH if unused. Where a SMILES comes first, the peptide text is derived from it. [ ]: non-standard residue; d: D form. The star is where a group is joined. X31 = CC(=O)N(C)SCC(N[*:1])C(=O)[*:2]; X47 = CC(=O)N(C)SCC(N*)/C(O)=N\O; Cbz = O=C(OCc1ccccc1)*; Bn = c1ccc(C*)cc1; For = O=C*

Tests used:
Assay in all cases: DTP human tumour cell line panel, 48 h
[1] = system: PC-3 prostate
[2] = system: MCF7 breast
[3] = system: OVCAR-8 ovarian
[4] = system: MALME-3M melanoma
[5] = system: NCI-H460 lung
[6] = system: SK-MEL-28 melanoma
[7] = system: MOLT-4 leukemia
[8] = system: MDA-MB-435
[9] = system: SR leukemia
[10] = system: HOP-62 NSCLC

| SMILES | TGI [1] | TGI [2] | TGI [3] | TGI [4] | TGI [5] | TGI [6] | TGI [7] | TGI [8] | TGI [9] | TGI [10] |
| --- | --- | --- | --- | --- | --- | --- | --- | --- | --- | --- |
| NCCSc1nc2ccccc2s1 | > 100 µM | 98.1 µM | > 100 µM | > 100 µM | > 100 µM | > 100 µM | 94.8 µM | 69 µM | 79.5 µM | 62.3 µM |
| CCCCCCCC1C(C)c2c([nH]c3ccccc23)C2C(=O)N(c3ccc(OC)cc3)C(=O)C21 (configuration not stated) | > 10 µM | > 10 µM | 6.02 µM | > 10 µM | 3.62 µM | > 10 µM | > 10 µM | > 8.39 µM | > 10 µM | > 7.78 µM |
| O=C(Nc1nnc(-c2ccccc2)o1)C(SC(=S)N1CCCCC1)c1ccccc1 (configuration not stated) | 96.2 µM | > 100 µM | > 100 µM | > 100 µM | 34.6 µM | > 100 µM | > 100 µM | 73.3 µM | > 100 µM | 92.1 µM |
| CCC1=NC(N/N=C/c2ccco2)=N/C1=C\c1ccccc1O | > 100 µM | > 100 µM | > 100 µM | 98.9 µM | 73.6 µM | > 100 µM | > 100 µM | > 100 µM | > 100 µM | > 100 µM |
| Cc1c2c(c(C)n1-c1ccccc1)C(=O)N(CCCCN1CCN(c3ccccc3)CC1)C2=O | 39.5 µM | 35.8 µM | 31.4 µM | 20.9 µM | 47.4 µM | – | 26.2 µM | 40.8 µM | 27 µM | 36.1 µM |
| COc1cc(-c2cn(S(=O)(=O)c3ccc(C)cc3)c3ccccc23)nc(-c2cn(S(=O)(=O)c3ccc(C)cc3)c3ccccc23)n1 | 38.5 µM | > 100 µM | > 100 µM | – | > 100 µM | > 55.7 µM | > 22.5 µM | 0.47 µM | > 100 µM | > 100 µM |
| C/C=C/[C@H]1O[C@@](O)([C@@H](C)[C@H](O)[C@H](C)[C@H]2OC(=O)/C(OC)=C/C(C)=C/[C@@H](C)[C@@H](O)[C@@H](CC)[C@@H](O)[C@H](C)C/C(C)=C/C=C/[C@@H]2OC)C[C@H](OC2CC(O)C(O)C(C)O2)[C@@H]1C (some centres not stated) | 9.48 µM | 8.58 µM | 12 µM | 0.907 µM | 4.81 µM | 14.7 µM | < 0.0075 µM | 8.87 µM | 0.75 µM | 2.7 µM |
| CC(=O)N(C)SCC(NC(=O)C(Cc1ccccc1)NC(=O)OCc1ccccc1)C(=O)NC(Cc1ccccc1)C(=O)NC(Cc1cn(C=O)c2ccccc12)C(=O)NC(CCCCNC(=O)OCc1ccccc1)C(=O)NC(C(=O)NC(CSN(C)C(C)=O)/C(O)=N\O)C(C)OCc1ccccc1 (configuration not stated) (Cbz-F[X31]FW(For)K(Cbz)T(Bn)-X47; configuration not given here) | > 100 µM | > 100 µM | > 100 µM | > 100 µM | > 100 µM | > 100 µM | > 100 µM | > 100 µM | > 100 µM | > 100 µM |
| COc1cc(Cc2cc3c(c(C(=O)O)c2Br)OCO3)cc(OC)c1OC | > 100 µM | > 100 µM | > 100 µM | > 100 µM | > 100 µM | > 100 µM | > 100 µM | > 100 µM | 89 µM | > 100 µM |
| CCC(C#N)(c1ccccc1)N(CCc1ccccc1)C(=O)c1ccccc1 (configuration not stated) | > 100 µM | > 100 µM | 54.2 µM | > 100 µM | – | > 100 µM | > 100 µM | > 100 µM | > 100 µM | 50.8 µM |
